Results from paper PMC6066988 (Frontiers in Microbiology, 2018).
Where two headings read alike, the source gives them in different places.

Tests used:
[1] = target: T1, DNA topoisomerase I (MtbTopoI) (Mycobacterium tuberculosis, UniProt P9WG49); type: biochemical
T1 construct: gene topA

[2] = target: T1, DNA topoisomerase I (MtbTopoI); test: […]; also inhibits cleavage of a 32-mer single-stranded DNA; type: biochemical

T1 sequence (P9WG49 whole entry): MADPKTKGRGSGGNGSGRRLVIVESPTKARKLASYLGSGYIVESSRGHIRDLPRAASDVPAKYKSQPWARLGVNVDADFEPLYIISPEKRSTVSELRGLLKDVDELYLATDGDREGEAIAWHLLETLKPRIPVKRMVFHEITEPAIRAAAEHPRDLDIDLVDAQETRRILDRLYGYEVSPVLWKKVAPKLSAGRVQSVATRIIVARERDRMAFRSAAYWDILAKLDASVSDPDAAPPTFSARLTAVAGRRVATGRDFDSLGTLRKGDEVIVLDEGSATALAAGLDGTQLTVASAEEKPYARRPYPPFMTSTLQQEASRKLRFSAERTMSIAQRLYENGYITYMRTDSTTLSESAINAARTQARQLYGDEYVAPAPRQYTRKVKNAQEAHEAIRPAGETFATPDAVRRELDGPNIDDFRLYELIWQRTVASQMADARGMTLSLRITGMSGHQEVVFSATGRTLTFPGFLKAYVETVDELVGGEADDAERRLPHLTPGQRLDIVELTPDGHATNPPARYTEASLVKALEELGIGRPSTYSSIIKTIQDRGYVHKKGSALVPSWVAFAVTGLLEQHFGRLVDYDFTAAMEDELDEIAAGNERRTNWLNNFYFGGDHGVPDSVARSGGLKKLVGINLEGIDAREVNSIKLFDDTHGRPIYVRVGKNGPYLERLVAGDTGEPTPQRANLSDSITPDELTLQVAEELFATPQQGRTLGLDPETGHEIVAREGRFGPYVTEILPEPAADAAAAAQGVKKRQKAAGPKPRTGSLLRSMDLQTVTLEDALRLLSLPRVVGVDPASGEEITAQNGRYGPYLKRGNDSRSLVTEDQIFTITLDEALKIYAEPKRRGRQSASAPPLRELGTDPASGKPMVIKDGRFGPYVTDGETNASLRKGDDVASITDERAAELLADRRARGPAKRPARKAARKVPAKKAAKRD

| Compound | IC50 [1] [µM] | IC50 [2] [µM] |
| --- | --- | --- |
| CN(C)CCc1cc2c(c3c1ccc1cc4c(cc13)OCO4)OCO2 [N-SCN, N-methyl-seconeolitsine] | 5.6 ± 0.8 | – |
| CNCCc1cc2c(c3c1ccc1cc4c(cc13)OCO4)OCO2 [SCN, seconeolitsine] | – | 8.4 ± 0.3 |
